Measurements taken from ChEMBL document CHEMBL3352674, “Pyrazolsulfonamide agonists of oxytocin receptor” (ACS Med Chem Lett, 2014).

Target: T1, Oxytocin receptor (Homo sapiens, UniProt P30559)
T1 sequence (P30559 whole entry): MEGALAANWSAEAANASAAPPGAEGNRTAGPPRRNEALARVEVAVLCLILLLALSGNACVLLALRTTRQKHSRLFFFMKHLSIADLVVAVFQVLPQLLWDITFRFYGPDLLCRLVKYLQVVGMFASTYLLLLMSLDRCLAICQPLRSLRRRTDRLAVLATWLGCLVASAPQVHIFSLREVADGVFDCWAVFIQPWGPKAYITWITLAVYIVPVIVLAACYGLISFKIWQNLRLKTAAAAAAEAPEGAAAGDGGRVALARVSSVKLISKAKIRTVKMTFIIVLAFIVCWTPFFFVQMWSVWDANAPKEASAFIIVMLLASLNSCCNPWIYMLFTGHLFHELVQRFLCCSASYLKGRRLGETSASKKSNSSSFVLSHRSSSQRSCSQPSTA
Test: Agonist activity at human oxytocin receptor expressed CHO cells assessed as calcium flux by FLIPR method
Format: functional, cell-based

EC50 [nM]	SMILES
19	O=S(=O)(Nc1ccnn1-c1ccccn1)c1ccc(Cl)cc1F
1570	O=S(=O)(Nc1ccnn1-c1ncc(C(F)(F)F)cn1)c1ccc(C(F)(F)F)cc1
